# Assay results: patent publication US20220313651A1, “INHIBITORS OF ZIKA VIRUS INFECTION” (priority 2019, published 2022)
# Where two headings read alike, the source gives them in different places.
# Test system: ZIKV (PAN2016)
# Experiment: Time-of-addition experiment, ZIKV PAN2016 in Vero E6 cells
# Assay type: cell-based, Zika virus (ZIKV)
# Conditions: for Inhibition of ZIKV infection, attachment: ZIKV and compound at 4° C. 1 h; for Inhibition of ZIKV infection, pretreatment of ZIKV: virus incubated with compound 37° C. 1 h before cells; for Inhibition of ZIKV infection, pretreatment of cells: cells incubated with compound 37° C. 1 h before ZIKV; for Inhibition of ZIKV infection, penetration (membrane fusion): cells with ZIKV at 4° C. 1 h; for Inhibition of ZIKV infection, penetration (membrane fusion) / Inhibition of ZIKV infection, post-entry stage: then compound 37° C. 1 h; for Inhibition of ZIKV infection, post-entry stage: cells with ZIKV at 37° C. 1 h; for inhibition at 7.5 µM: Zika virus
# Description: FIG. 2A-K depicts a time-of-addition experiment to test the ability of the disclosed compounds to block ZIKV infection at different steps of the viral life cycle. […] FIG. 2B: Pretreatment of cells: cells were pre-incubated with one of the compounds at 37° C. for 1 h, and the unbound compounds were then removed, followed by addition of ZIKV and incubation of cells at 37° C. for 1 h. After removal of the unbound ZIKV, the cells were cultured and plaques and inhibition rate determined as in FIG. 2A. FIG. 2C: Blockage of ZIKV attachment: cells were incubated with ZIKV at 4° C. for 1 h (to allow ZIKV attachment but not fusion between ZIKV and cell membranes) in the presence of one of the compounds. After removal of the unbound ZIKV and compounds, the cells were cultured and plaques and inhibition rate determined. […] FIG. 2E: Blockage of ZIKV penetration (membrane fusion): cells were incubated with ZIKV at 4° C. for 1 h to allow ZIKV attachment. After removal of the unbound ZIKV, the cells were incubated with one of the compounds at 37° C. for 1 h to allow fusion of virus-cell membranes. After further removal of the unbound compounds, the cells were cultured and plaques and inhibition rate determined. FIG. 2F: Inhibition of post-entry stage: cells were incubated with ZIKV at 37° C. for 1 h (to allow ZIKV entry into the target cells). […] The percent inhibition was calculated based on the numbers of plaques in the presence or absence of serially diluted compounds. The data are expressed as mean±s.e.m. (n=2). The experiments were repeated three times with similar results.
# Time-of-addition experiments were performed in Vero E6 cells, and six specific steps are shown as follows. 1) Step 1: Pretreatment of virus. […] After removal of the unbound compounds, ZIKV was incubated with cells at 37° C. for 1 h, followed by culturing cells at 37° C. for 4-5 days, and enumerating plaques. 2) Step 2: Pretreatment of cells. […] The unbound ZIKV was removed, and the cells were cultured and plaques enumerated as in Step 1. 3) Step 3: Attachment. […] After removal of the unbound ZIKV and compounds, the cells were cultured and plaques enumerated as in Step 1. 4) Step 4: Co-treatment. […] After removal of the unbound viruses and compounds, the cells were cultured and plaques enumerated as in Step 1. 5) Step 5: Fusion. Cells were incubated with ZIKV at 4° C. for 1 h for ZIKV attachment. […] The unbound compounds were removed, and the cells were cultured and plaques enumerated as in Step 1. 6) Step 6: Post-entry. Cells were incubated with ZIKV at 37° C. for 1 h for ZIKV entry. […] The unbound compounds were then removed, and the cells were cultured and enumerated for plaques as in Step 1. The data are expressed as mean % inhibition±s.e.m. (n=2). The percent inhibition was calculated based on the numbers of plaques in the presence or absence of the compounds. The experiments were repeated three times with similar results.
# Time-of-addition experiments. were performed to identify mechanisms of the Z-medicaments against ZIKV infection. […] Specifically, the following six stages of ZIKV infection were tested: (a) Pretreatment of ZIKV (PAN2016, ˜2.5×10^3 PFU) with the Z-medicaments at 37° C. for 1 h before incubation with cells; (b) Pretreatment of cells with the Z-medicaments at 37° C. for 1 h before incubation with ZIKV (PAN2016, ˜100 PFU); (c) Co-treatment of cells, ZIKV (PAN2016, ˜300 PFU) and the Z-medicaments at 4° C. for 1 h; (d) Co-treatment of cells, ZIKV (PAN2016, ˜100 PFU) and the Z-medicaments at 37° C. for 1 h; (e) Pre-incubation of cells with ZIKV (PAN2016, ˜300 PFU) at 4° C. for 1 h and then incubation with the Z-medicaments at 37° C. for 1 h; and (f) Pre-incubation of ZIKV (PAN2016, ˜100 PFU) and cells at 37° C. for 1 h, followed by incubation with the Z-medicaments at 37° C. for 1 h. […]
# [1] = co-treatment of cells, gossypol 15 μM, curcumin 30 μM, digitonin 7.5 μM, conessine 30 μM, ST087010 15 μM
# [2] = gossypol 15 μM, curcumin 30 μM, digitonin 7.5 μM, conessine 30 μM, ST087010 15 μM
SMILES,"Inhibition of ZIKV infection, attachment [1]","Inhibition of ZIKV infection, pretreatment of ZIKV [2]","Inhibition of ZIKV infection, pretreatment of cells [2]","Inhibition of ZIKV infection, penetration (membrane fusion) [2]","Inhibition of ZIKV infection, post-entry stage [2]","inhibition at 7.5 µM (Vero C1008, 1 h, read-out: Inhibition of ZIKV infection, penetration (membrane fusion)) [%]","inhibition at 7.5 µM (Vero C1008, 1 h, read-out: Inhibition of ZIKV infection, post-entry stage) [%]","inhibition at 7.5 µM (Vero C1008, read-out: Inhibition of ZIKV infection, pretreatment of cells) [%]","Inhibition of ZIKV infection, co-treatment of ZIKV and cells (co-treatment of cells, ZIKV and compound at 37° C. 1 h, gossypol 15 μM, curcumin 30 μM, digitonin 7.5 μM, conessine 30 μM, ST087010 15 μM)"
"C[C@H]1[C@H]2CC[C@H]3[C@@H]4CC=C5C[C@@H](N(C)C)CC[C@]5(C)[C@H]4CC[C@]23CN1C [Conessine, conessine]","very low, to no, effects","very low, to no, effects",,,,,,,
"COc1cc(/C=C/C(=O)CC(=O)/C=C/c2ccc(O)c(OC)c2)ccc1O [Curcumin, curcumin]",,,low to no impact,low to no impact,low to no impact,,,,
"C[C@@H]1CC[C@@]2(OC1)O[C@H]1[C@@H](O)[C@H]3[C@@H]4CC[C@H]5C[C@@H](O[C@@H]6O[C@H](CO)[C@H](O[C@@H]7O[C@H](CO)[C@@H](O)[C@H](O[C@@H]8OC[C@@H](O)[C@H](O)[C@H]8O)[C@H]7O[C@@H]7O[C@H](CO)[C@H](O)[C@H](O[C@@H]8O[C@H](CO)[C@@H](O)[C@H](O)[C@H]8O)[C@H]7O)[C@H](O)[C@H]6O)[C@H](O)C[C@]5(C)[C@H]4CC[C@]3(C)[C@H]1[C@@H]2C [Digitonin, digitonin]",,no effects,,,,49 to 74,49 to 74,≥ 94,
Cc1cc2c(C(C)C)c(O)c(O)c(/C=N/n3c(=O)[nH][nH]c3=O)c2c(O)c1-c1c(C)cc2c(C(C)C)c(O)c(O)c(/C=N/n3c(=O)[nH][nH]c3=O)c2c1O [ST087010],< 40%,almost completely inhibited,no or little,no or little,< 20%,,,,no or little
